Literature values in patent publication US12396980B2, “Melatonin for preventing and treating radiation cystitis” (RepoCeuticals A/S, priority 2015, dated 2025).
Blank lines part the entries; values can stand above or below the compound they belong to.

Assays:
radiation cystitis = settings: human patients
lymphocytes = settings: prior oral dosage; human beings
rat urinary bladder = settings: intraperitoneal

Structure (SMILES): C[S+](C)[O-] [DMSO, Dimethyl sulfoxide]
therapeutic effect on radiation cystitis (radiation cystitis): some therapeutic effect

Structure (SMILES): COc1ccc2[nH]cc(CCNC(C)=O)c2c1 [melatonin, /V-acetyl-5-methoxytryptamine]
protective effect on the damage caused by subsequent ex vivo radiation exposure of lymphocytes (lymphocytes): protective effect
protective effect against radiation-induced oxidative changes to the rat urinary bladder (rat urinary bladder): protective effect

water solubility: almost water-insoluble
Structure (SMILES): COC1=C(OC)C(=O)C(C/C=C(\C)CC/C=C(\C)CC/C=C(\C)CC/C=C(\C)CC/C=C(\C)CC/C=C(\C)CC/C=C(\C)CC/C=C(\C)CC/C=C(\C)CCC=C(C)C)=C(C)C1=O [coenzyme Q10]
